{"source": "patent US5874461A", "about": "“Use of Nebivolol as an anti-atherogenic” (priority 1995, dated 1999)", "key": {"C6 glioma cells [1]": {"tested_on": "C6 glioma cells", "experiment": "Fluorescence measurement of intracellular peroxides in C6 glioma cells after glutamate", "assay_type": "cell-based", "settings": "for glutamate-mediated increase in peroxidation: 10 mM glutamate; for Intracellular peroxides (mean ± SD, n): glutamate 10 mM, without or with compound 1 μM", "source_text": "(§1) Competitive inhibition by glutamate of cystine uptake in certain cells leads to glutathione depletion and oxidative stress. This oxidative stress model has been described for glial C6 glioma cells (Kato et al., 1992. A mechanism for glutamate toxicity in the C6 glioma cells involving inhibition of cystine uptake leading to glutathione depletion. Neurosci. 48:903-914) and for the neuronal cell line N18RE105 (Murphy et al., 1989. Glutamate toxicity in a neuronal cell line involves inhibition of cystine transport leading to oxidative stress. Neuron 2:1547-1558).\n(§2) Cell culture: The C6 glioma cell line (American Type Culture Collection, CCL 107) was cultivated in DMEM supplemented with 2 or 4 mM glutamine, 1 mM pyruvate and 5 or 10% heat-inactivated foetal calf serum. Cultures were maintained at 37° C. in an air/5~10% CO2, water saturated atmosphere.\n(§3) Glutathione depletion and evaluation of drugs as antioxidants: Experiments were carried out with cultures plated at 30,000~50,000 cells/cm^2 in 24-well culture plates (for toxicity and lipid peroxide measurements) or at 136,000 cells/cm^2 in 96-well culture plates (for GSH determination). After 8-24 hr, the cultures were switched to culture medium in the absence or presence of the cystine uptake inhibitor glutamate at a final concentration of 10 mM. In order to test drugs for inhibition of oxidative stress, the drug was added together with glutamate (final concentration of solvent was 0.01% hydroxypropyl-β-cylodextrin, 0.1% DMSO). Intracellular glutathione levels were measured after 6~8 hr, lipid peroxides were measured after 14~20 hr, and toxicity and protection were analysed after 48 hr using an LDH assay according to the method of Bergmeyer and Bernt (UV-assay with pyruvate and NADH. In: Methods of Enzymatic Analysis. 1974. H. U. Bergmeyer, ed. Acad. Press, New York, 2nd Ed., pp 574-579).\nFluorescence measurement of intracellular peroxides: Formation of intracellular peroxides was detected using 6-carboxy-2',7'-dichlorodihydrofluorescin diacetate, di(acetoxymethyl ester) (C-DCDHF, Molecular Probes). C-DCDHF was dissolved in DMSO at a concentration of 10 mM and stored at -70° C. under nitrogen. After exposure of the culture to the glutathione depleting agents, the cells were loaded with 10 μM C-DCDHF for one hour at 37° C. Medium was aspirated off, PBS was added to the cells, and plates were read in a Cytofluor II microplate reader (PerSeptive Biosystems). Excitation and emission wavelength were selected with a 485/530 nm filter pair. The results were expressed in relative fluorescence units/μg protein."}, "C6 glioma cells [2]": {"tested_on": "C6 glioma cells", "experiment": "GSH content in C6 glioma cultures after glutamate", "assay_type": "cell-based", "settings": "for intracellular glutathione levels: 10 mM glutamate, 6 hr or more; for GSH content: glutamate 10 mM, without or with compound 1 μM", "source_text": "as §1, §2, §3\nDetermination of GSH content in C6 glioma cultures: GSH levels were analysed by a micromethod, essentially as described by Vandeputte et al. (A microtiterplate assay for total glutathione and glutathione disulfide contents in cultured/isolated cells: performance study of a new miniaturised protocol. 1994. Cell Biol. Toxicol. 10:415-421), with a modification in the washing and homogenisation procedures. Cells (in 96-well plates) were washed with PBS, were homogenised in 50 μl 10 mM HCl containing 1.3% 5-sulfosalicylic acid, and the homogenate was centrifuged at 1200×g for 10 min at 4° C. Forty μl of the supernatant was transferred to a well of a 96-well plate and 200 μl reagent (1 mM 5,5'-dithiobis-(2-nitrobenzoic acid), 0.34 mM NADPH and 6.3 mM EDTA in 143 mM phosphate buffer pH 7.4) was added. After 5 min equilibration to room temperature the reaction was started by adding 40 μl glutathione reductase (8.5 IU/ml 143 mM phosphate buffer, 6.3 mM EDTA pH 7.4). NADPH oxidation was followed at 414 nm for 5 minutes with a Multiskan MCC/340 (Labsystems), and the change in absorbance (DA) per min was calculated. The glutathione content was deduced from a standard curve ranging from 0.2 to 2 nmol commercial GSH per test (DA/min plotted versus concentration)."}}, "data": [{"molecule": "O[C@H](CNC[C@@H](O)[C@H]1CCc2cc(F)ccc2O1)[C@@H]1CCc2cc(F)ccc2O1", "note": "(relative stereo) [nebivolol, (RSSS) and (SRRR) α,α'-iminobis(methylene)bis[6-fluoro-2-chroman-methanol]]", "values": [{"measurement": "glutamate-mediated increase in peroxidation", "setting": "C6 glioma cells [1]", "value": "inhibited the glutamate-mediated increase in peroxidation"}, {"measurement": "Intracellular peroxides (mean ± SD, n)", "setting": "C6 glioma cells [1]", "value": "155 ± 13 Relative fluorescence units/μg"}, {"measurement": "intracellular glutathione levels", "setting": "C6 glioma cells [2]", "value": "remained about half the levels seen in healthy control cells"}, {"measurement": "GSH content", "setting": "C6 glioma cells [2]", "value": "301 ± 12", "unit": "pmol/well"}]}, {"molecule": "Oc1ccc2c(c1)CCC(C(O)CNCC(O)C1CCc3ccccc3O1)O2", "note": "(stereo not drawn) [Compound A, [(RRSR)+(RRRS)+(SSSR) +(SSRS)]-α-[[[2-(chroman-2-yl)-2-hydroxy-ethyl]amino]methyl]-6-hydroxy-2-chromanmethanol ethanedioate (1:1)]", "values": [{"measurement": "glutamate-mediated increase in peroxidation", "setting": "C6 glioma cells [1]", "value": "inhibited the glutamate-mediated increase in peroxidation"}, {"measurement": "Intracellular peroxides (mean ± SD, n)", "setting": "C6 glioma cells [1]", "value": "137 ± 8 Relative fluorescence units/μg"}, {"measurement": "intracellular glutathione levels", "setting": "C6 glioma cells [2]", "value": "remained about half the levels seen in healthy control cells"}, {"measurement": "GSH content", "setting": "C6 glioma cells [2]", "value": "301 ± 12", "unit": "pmol/well"}]}]}
